Data reported in patent US20080293699A1, “Inhibitors of thapsigargin-induced cell death” (priority 2007, published 2008).
“Also recorded” adds a separate entry of the source.

Tested on: ASK1 (ser 967, ser 83, thr 845)
Test: Phosphorylation of ASK1 sites in ASK1-transfected 293T cells (immunoblotting)
Assay type: cell-based
Details: for Phosphorylation of ASK1 at ser 83 and thr 845 / Phosphorylation of ASK1 at ser 967: ASK1-transfected 293T; for Phosphorylation of ASK1 at ser 83 and thr 845: up to 100 μM; for Phosphorylation of ASK1 at ser 967: 100 μM compound, two hours
Procedure: Phosphorylation of ASK1 at various sites was inspected. 293T cells were transfected with pcDNA-ASK1-HA. One day later, cells were incubated with DMSO (0.4%) or 100 μM compound 6239507 (#1) for two hours. Cell extracts were prepared using lysis buffer and were subjected to immunoblotting using anti-phospho ASK1 antibodies or anti HA antibody as indicated (A). The relative density of each phosphorylated ASK band was calculated by imageJ software (B). In (C), compounds from (A) were compared in activity against thapsigargin-induced cell death. […] (D) 293T cells were transfected with pcDNA-ASK1-HA and pEBG-GST-14-3-3. One day later cells were incubated with DMSO (0.4%) or 100 μM of the indicated compound for two hours. Then cells were treated with thapsigargin (20 μM) for the indicated time. Cell extracts were prepared using lysis buffer, and 14-3-3 proteins were immunoprecipitated with […] sepharose beads. ASK1 protein binding with 14-3-3 was visualized by immunoblotting using anti-HA antibody. Anti-phospho ASK1 (ser967) antibody was used to detect phosphorylation of ASK1 at each time point.
Thus, while not directly inhibiting ASK1 kinase activity, these events are predicted to reduce ASK1 in vivo kinase activity. It is possible that compound 5962123 inhibits a protein phosphatase that regulates phosphorylation of Ser967.
Suppression of thapsigargin-induced phosphorylation of p38MAPK was also measured by a quantitative ELISA-methods, with IC50 for p38MAPK phosphorylation estimated at <5 μM. In contrast, thapsigargin-induced expression of CHOP, expression of ATF4, proteolytic processing of ATF6, phosphorylation of eIF2a (Ser 51), auto-phosphorylation of Ire1a or auto-phosphorylation of ASK1 were not inhibited directly by CID-2878746 at concentrations up to 50 μM tested by in vitro kinase assay using p32-γ-ATP substrate. […] Thapsigargin-induced reductions in phosphorylation of ASK1 at the serine 967 site in ASK1 transfected 293T cells are inhibited by compound 5962123 at concentrations of 50-100 μM, as determined by immunoblotting using anti-phospho-specific (ser 967) antibody, but thapsigargin-induced changes in phosphorylation of ASK1 at ser 83 and thr 845 are not modulated by compound 5962123 at concentrations as high as 100 μM in ASK1-transfected HEK293T cells.
Experiments were also performed to determine whether compound 6239507 enhances phosphorylation of ASK1 at Ser 967 before and after ER stress induction (i.e., thapsigargin treatment). 293T cells were transfected with pcDNA-ASK1-HA. One day later, cells were incubated with DMSO (0.4%) or 100 μM compound 6239507 (#1) for two hours. Then cells were treated with thapsigargin (20 μM) for the indicated times. Cell extracts were prepared by lysis buffer and were subjected to immunoblotting with anti-phospho ASK1 Ser967 antibody or anti HA antibody. The relative density of phosphor ser967 bands were calculated by imageJ software (mean ±SD).
The ser 967 site of ASK1 is known to down-regulate ASK1 activity by phosphorylation (Goldman et al., J. Biol. Chem. 279:10442-10449, 2004) via 14-3-3 binding. […] 293T cells were transfected with pcDNA-ASK1-HA. One day later, cells were incubated with DMSO (0.4%) or 100 μM compound 6239507 (#1) for two hours. Cell extracts were prepared using lysis buffer and were subjected to immunoblotting using anti-phospho ASK1 antibodies or anti HA antibody as indicated. The relative density of each phosphorylated ASK band was calculated by imageJ software. The compounds were compared in activity against thapsigargin-induced cell death. 293T cells were transfected with pcDNA-ASK1-HA and pEBG-GST-14-3-3. One day later cells were incubated with DMSO (0.4%) or 100 μM of the indicated compound for two hours. Then cells were treated with thapsigargin (20 μM) for the indicated time. Cell extracts were prepared using lysis buffer, and 14-3-3 proteins were immunoprecipitated with […] sepharose beads. […]

Compound	Phosphorylation of ASK1 at ser 83 and thr 845	Thapsigargin-stimulated dephosphorylation of ASK1 at serine 967 (ASK1-transfected HEK293T, 50 μM, 50-100 μM)	Phosphorylation of ASK1 at ser 967	Phosphorylation of ASK1 at ser 967 (listed as 1)
CCN(CC)c1ccc(C2Nc3ccccc3NC3=C2C(=O)CC(c2ccccc2)C3)cc1 (stereo not shown) [Compound 5962123, 6-(4-diethylaminophenyl)-9-phenyl-5,6,8,9,10,11-hexahydrobenzo[c][1,5]benzodiazepin-7-one]	not modulated	inhibited		
COc1ccc(C2CC(=O)C3=C(C2)Nc2ccccc2NC3c2ccccc2C(F)(F)F)cc1OC (stereo not shown) [Compound 6237735]	not ser 83 or thr 845		enhanced phosphorylation of ser 967 only	
COc1ccc(C2CC(=O)C3=C(C2)Nc2ccccc2NC3c2cccc(Oc3ccccc3)c2)cc1OC (stereo not shown) [Compound 6239507]	not ser 83 or thr 845		enhance phosphorylation; also recorded: intensified	enhanced phosphorylation of ser 967 only
